≈ marks a conversion by molar mass, not a printed value.
What was measured:
LTA [1] = test: BODIPY-TR-cadaverine displacement assay; assay type: binding
Protocol: The percentage of displacement from LTA-BODIPY/LPS-BODIPY by test compounds was determined according to BODIPY cadaverine displacement assay. […] The mixture was incubated in the dark for 30 min, and then the fluorescence was monitored at an excitation wavelength of 580 nm and an emission wavelength of 620 nm using a BioTek multidetector microplate reader. The percentage of displacement from LTA-BODIPY/LPS-BODIPY was calculated by the following formula: % Displacement = (FS − Fmin)/(Fmax − Fmin) × 100. Where FS is the fluorescence intensity observed at a given test compound concentration, Fmin is the fluorescence intensity of BODIPY with LTA/LPS and DMSO, and Fmax is the fluorescence intensity of BODIPY with only DMSO. All tests were carried out at least twice and with biological replicates.

LPS = test: Fluorescence-based binding assay; conditions: compound 1× MIC; LPS 0 to 2.5 μg/ml
Protocol: Changes in the fluorescence emission spectrum or intensity were assessed for compound XT17 with and without the presence of targeted proteins. The fluorescent properties of compound XT17 (excitation wavelength of 350 nm and emission wavelength of 440 nm) were measured using a fluorescent plate reader upon binding to the targets. […] The changes in the emission from a constant concentration of fluorescent compound were monitored after adding increasing concentrations of LTA or LPS. All measurements were repeated three times with duplicates each time.

[2] = for the free guanidine group, not the whole compound; cited from earlier work
E. coli ATCC 25922 = test: RNA-seq transcriptome response; assay type: cell-based, Escherichia coli; conditions: 4× MIC, 2 hours
Protocol: After exposure, 1-ml aliquots of cells were immediately pelleted at 4°C by centrifugation for 2 min at 2000 rpm. The supernatants were removed and immediately frozen in liquid nitrogen. The samples were stored at −80°C for later total RNA isolation. Total RNA was extracted using the bacterial RNA kit (Omega Bio-Tek, USA) according to the manufacturer’s instructions. The RNA integrity number values were obtained to assess RNA quality using an Agilent Genomics 2200 Tape Station instrument.
A total amount of 2 to 5 ng of the RNA per sample was executed as the input material to construct each cDNA library for RNA-seq using the NEBNext Ultra Directional RNA Library prep kit from Illumina. The quality of the resulting libraries was checked using Agilent High Sensitivity DNA chips to ensure proper library size distribution and the absence of small adapters.
Read mapping was aligned using Bowtie2 ([74]). HTSeq v0.6.1 was used for quantification of expression levels ([75]). DESeq2 on the R package (v1.12.4) was used to calculate DEGs. Differential expression was computed using edgeR: exactTest for each treatment versus the untreated control ([76]). The E. coli database used for mapping was GCF_017357505.1_ASM1735750v1_genomic.fna. Both the GO and KEGG (KEGG Ortholog database) enrichment analyses were done with the Fisher’s exact test. All P values were adjusted with the Benjamini-Hochberg procedure to generate false discovery rates (adjusted P values). GO enrichment analysis was carried out using the clusterProfiler package on the R platform ([77]). KEGG pathway mapping and figure generation were performed with the PathView website ([78]). COG of protein databases were searched with an E value of 1e^-5. For hierarchal clustering analysis of gene expression, the gene expression levels were normalized to z scores of log10 (FPKM + 1), where FPKM is fragments per kilobase per million. For hierarchal clustering analysis of the regulation of transcription factors, the unweighted pair group method with arithmetic mean (UPGMA) method was used as the clustering method. […] Volcano plots were generated by plot_volcano from soothsayer (https://github.com/jolespin/soothsayer) in Python v.3.6.6. Directed networks were constructed and plotted using NetworkX and Matplotlib Python packages, respectively. Hierarchical clustering analysis and heatmap calculation were performed with the pheatmap package on the R platform. The umap package on the R platform was used for uniform manifold approximation and projection (UMAP) analysis of FPKM vectors of each transcriptome. The figures were created via the ggplot2 package ([79]).

LTA [3] = test: Fluorescence-based binding assay; conditions: compound 1× MIC; LTA 0 to 2.5 μg/ml
Protocol: Changes in the fluorescence emission spectrum or intensity were assessed for compound XT17 with and without the presence of targeted proteins. The fluorescent properties of compound XT17 (excitation wavelength of 350 nm and emission wavelength of 440 nm) were measured using a fluorescent plate reader upon binding to the targets. LTA-targeted protein concentrations ranged from 0.2 to 6.25 μg/ml, while LPS concentrations ranged from 0.78 to 25 μg/ml. The changes in the emission from a constant concentration of fluorescent compound were monitored after adding increasing concentrations of LTA or LPS. All measurements were repeated three times with duplicates each time.

K. pneumoniae = test: MIC, summary over K. pneumoniae strains; assay type: cell-based; conditions: Klebsiella pneumoniae, two strains; read-out: MICs against K. pneumoniae
Protocol: MIC was determined using the broth microdilution method in accordance with Clinical and Laboratory Standards Institute guidelines. All compounds were dissolved in dimethyl sulfoxide (DMSO; final DMSO concentration of less than 0.5%) and sterile double-distilled water and then diluted with Mueller-Hinton broth (MHB). Each compound’s stock solution was serially twofold diluted, resulting in concentrations ranging from 0.39 to 100 μg/ml, and thereafter added to sterile 96-well plates. All bacterial cell suspensions were adjusted in MHB to attain a starting inoculum of 1 × 10^6 cells/ml. A total of 100 μl volume of the bacterial suspension was then added to each well. Following a 24-hour incubation at 37°C, the optical density at 600 nm (OD600) was confirmed by measuring absorbance at 600 nm with a BioTek microplate reader. […] All measurements were repeated three times with duplicates each time.

In the case of CC(C)=CCOc1cc(OCCCNC(=N)N)cc2oc3cc(OCCCNC(=N)N)ccc3c(=O)c12 [XT17], the “% Displacement from LTA” value (LTA [1]; 1× MIC) is reported as 2.86%, the “% Displacement from LTA” value (LTA [1]; 2× MIC) is reported as 14.81% and the “% Displacement from LTA” value (LTA [1]; 4× MIC) is reported as 17.88%. For the same compound, the “% Displacement from LTA” value (LTA [1]; 8× MIC) was 32.95%, the “fluorescence emission of compound upon binding to LPS” value (LPS) was “decreased in a concentration-dependent manner” and the pKa [2] was 12.48. The genes expressed (E. coli ATCC 25922) was 4617 genes, the “Log2FC clbN (colibactin non-ribosomal peptide synthetase ClbN)” value (E. coli ATCC 25922; vs untreated) was -2.7305 and the “Log2FC cspE (transcription antiterminator/RNA stability regulator CspE)” value (E. coli ATCC 25922; vs untreated) was -4.5456. For the same compound, the “Log2FC dnaE (DNA polymerase III subunit alpha)” value (E. coli ATCC 25922; vs untreated) was 2.4033, the “Log2FC dnaN (DNA polymerase III subunit beta)” value (E. coli ATCC 25922; vs untreated) was 2.4370 and the “Log2FC dnaQ (DNA polymerase III subunit epsilon)” value (E. coli ATCC 25922; vs untreated) was 2.6769. The “Log2FC dnaT (primosomal protein DnaT)” value (E. coli ATCC 25922; vs untreated) was 1.8873, the “Log2FC dnaX (DNA polymerase III subunit gamma/tau)” value (E. coli ATCC 25922; vs untreated) was 1.3272 and the “Log2FC gyrA (DNA topoisomerase (ATP-hydrolyzing) subunit A)” value (E. coli ATCC 25922; vs untreated) was 2.7733. For the same compound, the “Log2FC gyrB (DNA topoisomerase (ATP-hydrolyzing) subunit B)” value (E. coli ATCC 25922; vs untreated) was 2.8529, the “Log2FC holB (DNA polymerase III subunit delta')” value (E. coli ATCC 25922; vs untreated) was 3.5242 and the “Log2FC holC (DNA polymerase III subunit chi)” value (E. coli ATCC 25922; vs untreated) was 1.8432. For the same compound, the “Log2FC holD (DNA polymerase III subunit psi)” value (E. coli ATCC 25922; vs untreated) was 2.6144, the “Log2FC parC (DNA topoisomerase IV subunit A)” value (E. coli ATCC 25922; vs untreated) was 2.5193 and the “Log2FC parE (DNA topoisomerase IV subunit B)” value (E. coli ATCC 25922; vs untreated) was 2.3205. The “Log2FC priA (primosomal protein N')” value (E. coli ATCC 25922; vs untreated) was 3.3285, the “Log2FC priB (primosomal replication protein N)” value (E. coli ATCC 25922; vs untreated) was 5.8981 and the “Log2FC priC (primosomal replication protein N'')” value (E. coli ATCC 25922; vs untreated) was 2.6334. For the same compound, the “Log2FC recA (recombinase RecA)” value (E. coli ATCC 25922; vs untreated) was 5.7854, the “Log2FC recB (exodeoxyribonuclease V subunit beta)” value (E. coli ATCC 25922; vs untreated) was 2.0328 and the “Log2FC recC (exodeoxyribonuclease V subunit gamma)” value (E. coli ATCC 25922; vs untreated) was 2.4556. For the same compound, the “Log2FC recF (DNA replication/repair protein RecF)” value (E. coli ATCC 25922; vs untreated) was 1.6106, the “Log2FC recG (ATP-dependent DNA helicase RecG)” value (E. coli ATCC 25922; vs untreated) was 1.6673 and the “Log2FC recJ (single-stranded-DNA-specific exonuclease RecJ)” value (E. coli ATCC 25922; vs untreated) was 4.2947. The “Log2FC recO (DNA repair protein RecO)” value (E. coli ATCC 25922; vs untreated) was 2.8669, the “Log2FC recR (recombination mediator RecR)” value (E. coli ATCC 25922; vs untreated) was 2.2758 and the “Log2FC ruvA (Holliday junction branch migration protein RuvA)” value (E. coli ATCC 25922; vs untreated) was 3.9191. For the same compound, the “Log2FC ruvB (Holliday junction branch migration DNA helicase RuvB)” value (E. coli ATCC 25922; vs untreated) was 4.1938, the “Log2FC ruvC (crossover junction endodeoxyribonuclease RuvC)” value (E. coli ATCC 25922; vs untreated) was 2.7878 and the “Log2FC ssb1 (single-stranded DNA-binding protein SSB1)” value (E. coli ATCC 25922; vs untreated) was 3.2652. The down-regulated genes (E. coli ATCC 25922; vs untreated) was 348 genes, the up-regulated genes (E. coli ATCC 25922; vs untreated) was 2885 genes and the differentially expressed genes (E. coli ATCC 25922; vs untreated, P < 0.05, absolute log2 fold change > 1) was 3233 genes. For the same compound, the “fluorescence emission of compound upon binding to LTA” value (LTA [3]) was “decreased in a concentration-dependent manner” and the MIC (K. pneumoniae) was 6.25 to 12.5 µg/mL (≈ 12.2 to 24.5 µM).
